How the values were obtained:
Type in all cases: in vivo
[1] = test system: rice plant; assay: Test Example 5: effect on crop by foliage application, plastic box (symbol b); settings: 320 g/ha, 3 weeks after application
Method in brief: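 Greenhouse test at 25° C. to 30° C. Seeds of crops and weeds were spot-sown in boxes of sterilized diluvial soil under roughly 1.5 cm soil cover, then grown for foliage treatment.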

[2] = test system: rice; assay: Test Example 4: effect on crop by soil treatment (symbol b); settings: 320 g/ha
Method in brief: (§1)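 Steps: fill box with sterilized diluvial soil; sow seed spot-like; cover with ~1.5 cm soil; grow in greenhouse (25° C. to 30° C.).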

[3] = test system: Monochoria vaginalis; assay: Test Example 2: herbicidal activity, application during weed generation in submerged conditions (symbol C); settings: Table 23; application herbicide amount 320 g/ha; grade 0-5 by criteria of Test Example 1
Method in brief: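 Scoring of herbicidal effect took place 3 weeks after treatment, using the criteria of the earlier test. Treatment was water-surface application of diluted emulsifiable compound at a set dose. Plants were at one- to two-leaf stage in submerged alluvial soil (4 cm depth), greenhouse 25-30° C.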

[4] = test system: Abutilon theophrasti; assay: Test Example 5: herbicidal effect by foliage application, plastic box (symbol M); settings: 320 g/ha, 3 weeks after application
Method in brief: (§2)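 Sowing in sterilized diluvial soil, 14 days' greenhouse growth at 25° C. to 30° C., then uniform small-sprayer foliar application of aqueous emulsion dilution; plants scored three weeks afterwards.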

[5] = test system: Galium spurium; assay: Test Example 4: herbicidal effect by soil treatment (symbol Q); settings: 320 g/ha
Method in brief: (§3)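 Seeds were sown in sterilized diluvial soil, covered with about 1.5 cm of soil, and the soil surface was sprayed with a water-diluted emulsion of the compound at a predetermined rate. Plants grew in a greenhouse at 25° C. to 30° C.; effects were scored visually 3 weeks after application.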

[6] = test system: Avena fatua; assay: Test Example 5: herbicidal effect by foliage application, plastic box (symbol I); settings: 320 g/ha, 3 weeks after application
Method in brief: as §2

[7] = test system: Amaranthus retroflexus; assay: Test Example 4: herbicidal effect by soil treatment (symbol N); settings: 320 g/ha
Method in brief: as §3

[8] = test system: transplanted rice plant; assay: Test Example 1: effect on crop, application before weed generation in submerged conditions (symbol a); settings: application herbicide amount 320 g/ha
Method in brief: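 Alluvial soil pots flooded to 4 cm water, sown with Echinochloa oryzacola, Scirpus juncoides and Monochoria vaginalis, then transplanted with 2.5 leaf stage rice seedlings; pre-emergence application. Greenhouse 25° C. to 30° C.; scored 0–5 by herbicidal ratio 3 weeks after application.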

[9] = test system: Digitaria ciliaris; assay: Test Example 5: herbicidal effect by foliage application, plastic box (symbol F); settings: 320 g/ha, 3 weeks after application
Method in brief: as §2

[10] = test system: Stellaria media; assay: Test Example 5: herbicidal effect by foliage application, plastic box (symbol P); settings: 320 g/ha, 3 weeks after application
Method in brief: as §2

[11] = test system: beet; assay: Test Example 4: effect on crop by soil treatment (symbol f); settings: 320 g/ha
Method in brief: as §1

[12] = test system: Echinochloa crus-galli var. crus-galli; assay: Test Example 4: herbicidal effect by soil treatment (symbol H); settings: 320 g/ha
Method in brief: as §3

[13] = test system: Stellaria media; assay: Test Example 4: herbicidal effect by soil treatment (symbol P); settings: 320 g/ha
Method in brief: as §3

[14] = test system: Setaria viridis; assay: Test Example 5: herbicidal effect by foliage application, plastic box (symbol G); settings: 320 g/ha, 3 weeks after application
Method in brief: as §2

Structure (SMILES)	b: directly sowed rice plant, effect on crop (criteria 0-5) [1]	b: directly sowed rice plant, effect grade on crop [2]	Herbicidal effect grade, C: Monochoria vaginalis [3]	M: Abutilon theophrasti, herbicidal effect (criteria 0-5) [4]	Q: Galium spurium, herbicidal effect grade [5]	I: Avena fatua, herbicidal effect (criteria 0-5) [6]	N: Amaranthus retroflexus, herbicidal effect grade [7]	Effect grade on crop, a: transplanted rice plant [8]	F: Digitaria ciliaris, herbicidal effect (criteria 0-5) [9]	P: Stellaria media, herbicidal effect (criteria 0-5) [10]	f: beet, effect grade on crop [11]	H: Echinochloa crus-galli var. crus-galli, herbicidal effect grade [12]	P: Stellaria media, herbicidal effect grade [13]	G: Setaria viridis, herbicidal effect (criteria 0-5) [14]
CC(CC1CC(O)=C(c2c(C)cc(C)cc2C)C1=O)=NOCc1ccccc1C(F)(F)F (centres unmarked) [1-116]	4 (Herbicidal ratio of 70% or higher and lower than 90%)	1 (Herbicidal ratio of 5% or higher and lower than 20%)	2 (Herbicidal ratio of 20% or higher and lower than 40%)	1 (Herbicidal ratio of 5% or higher and lower than 20%)	0 (Herbicidal ratio of 5% or lower (almost no effect))	4 (Herbicidal ratio of 70% or higher and lower than 90%)	5 (Herbicidal ratio of 90% or more (almost completely withered))	3 (Herbicidal ratio of 40% or higher and lower than 70%)	5 (Herbicidal ratio of 90% or more (almost completely withered))	2 (Herbicidal ratio of 20% or higher and lower than 40%)	0 (Herbicidal ratio of 5% or lower (almost no effect))	3 (Herbicidal ratio of 40% or higher and lower than 70%)	0 (Herbicidal ratio of 5% or lower (almost no effect))	5 (Herbicidal ratio of 90% or more (almost completely withered))
C=C(C)CN(CC)C(=O)OC1=C(c2c(C)cc(C)cc2C)C(=O)C(CC(C)=NOC)C1 (centres unmarked) [1-130]	5 (Herbicidal ratio of 90% or more (almost completely withered))	0 (Herbicidal ratio of 5% or lower (almost no effect))	0 (Herbicidal ratio of 5% or lower (almost no effect))	0 (Herbicidal ratio of 5% or lower (almost no effect))	0 (Herbicidal ratio of 5% or lower (almost no effect))	5 (Herbicidal ratio of 90% or more (almost completely withered))	0 (Herbicidal ratio of 5% or lower (almost no effect))	3 (Herbicidal ratio of 40% or higher and lower than 70%)	4 (Herbicidal ratio of 70% or higher and lower than 90%)	0 (Herbicidal ratio of 5% or lower (almost no effect))	0 (Herbicidal ratio of 5% or lower (almost no effect))	0 (Herbicidal ratio of 5% or lower (almost no effect))	0 (Herbicidal ratio of 5% or lower (almost no effect))	5 (Herbicidal ratio of 90% or more (almost completely withered))
CON=C(C)CON=C(C)CC1CC(O)=C(c2c(C)cc(C)cc2C)C1=O (centres unmarked) [1-105]	5 (Herbicidal ratio of 90% or more (almost completely withered))	5 (Herbicidal ratio of 90% or more (almost completely withered))	3 (Herbicidal ratio of 40% or higher and lower than 70%)	1 (Herbicidal ratio of 5% or higher and lower than 20%)	0 (Herbicidal ratio of 5% or lower (almost no effect))	5 (Herbicidal ratio of 90% or more (almost completely withered))	4 (Herbicidal ratio of 70% or higher and lower than 90%)	5 (Herbicidal ratio of 90% or more (almost completely withered))	5 (Herbicidal ratio of 90% or more (almost completely withered))	1 (Herbicidal ratio of 5% or higher and lower than 20%)	0 (Herbicidal ratio of 5% or lower (almost no effect))	5 (Herbicidal ratio of 90% or more (almost completely withered))	0 (Herbicidal ratio of 5% or lower (almost no effect))	5 (Herbicidal ratio of 90% or more (almost completely withered))
CC(CC1CC(O)=C(c2c(C)cc(C)cc2C)C1=O)=NOCc1cccc(C(F)(F)F)c1 (centres unmarked) [1-117]	5 (Herbicidal ratio of 90% or more (almost completely withered))	5 (Herbicidal ratio of 90% or more (almost completely withered))	3 (Herbicidal ratio of 40% or higher and lower than 70%)	1 (Herbicidal ratio of 5% or higher and lower than 20%)	0 (Herbicidal ratio of 5% or lower (almost no effect))	5 (Herbicidal ratio of 90% or more (almost completely withered))	0 (Herbicidal ratio of 5% or lower (almost no effect))	5 (Herbicidal ratio of 90% or more (almost completely withered))	5 (Herbicidal ratio of 90% or more (almost completely withered))	3 (Herbicidal ratio of 40% or higher and lower than 70%)	0 (Herbicidal ratio of 5% or lower (almost no effect))	5 (Herbicidal ratio of 90% or more (almost completely withered))	0 (Herbicidal ratio of 5% or lower (almost no effect))	5 (Herbicidal ratio of 90% or more (almost completely withered))

Reference: patent publication US11000033B2, “Ketone or oxime compound, and herbicide” (NISSAN CHEMICAL CORPORATION, priority 2014, dated 2021)
